Assay results taken from PubChem BioAssay AID248 (DTP/NCI, 2004).
Several values for one entry are separate records, joined by “and”; a condition that tells them apart may be missing. Equal entries are not always repeated. Toxic doses and inconclusive results are not listed.

Tested on: L1210 leukemia ip in BDF1 mice, survival T/C
Assay: NCI In Vivo Anticancer Drug Screen. Data for tumor model L1210 Leukemia (intraperitoneal) in B6D2F1 (BDF1) mice
Conditions: endpoint: mean survival time, higher = longer survival
Method in brief: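 Mice bearing the transplanted tumor received compound or vehicle. Survival of the treated group was divided by that of the vehicle-treated control group to give the ratio.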

[1] = dose: 100.0 mg/kg/injection, schedule: Q04DX002 (ip), vehicle: Klucel (hydroxypropylcellulose) (HPC)
[2] = dose: 200.0 mg/kg/injection, schedule: Q04DX002 (ip), vehicle: Klucel (hydroxypropylcellulose) (HPC)
[3] = dose: 400.0 mg/kg/injection, schedule: Q04DX002 (ip), vehicle: Klucel (hydroxypropylcellulose) (HPC)
[4] = dose: 50.0 mg/kg/injection, schedule: Q01DX001 (ip), vehicle: saline
[5] = dose: 100.0 mg/kg/injection, schedule: Q01DX001 (ip), vehicle: saline
[6] = dose: 200.0 mg/kg/injection, schedule: Q01DX001 (ip), vehicle: saline
[7] = dose: 400.0 mg/kg/injection, schedule: Q01DX001 (ip), vehicle: saline
[8] = dose: 12.5 mg/kg/injection, schedule: Q04DX003 (ip), vehicle: saline
[9] = dose: 25.0 mg/kg/injection, schedule: Q04DX003 (ip), vehicle: saline
[10] = dose: 50.0 mg/kg/injection, schedule: Q04DX003 (ip), vehicle: saline
[11] = dose: 100.0 mg/kg/injection, schedule: Q04DX003 (ip), vehicle: saline
[12] = dose: 200.0 mg/kg/injection, schedule: Q04DX003 (ip), vehicle: saline
[13] = dose: 100.0 mg/kg/injection, schedule: Q01DX001 (ip), vehicle: carboxymethylcellulose (CMC)
[14] = dose: 200.0 mg/kg/injection, schedule: Q01DX001 (ip), vehicle: carboxymethylcellulose (CMC)
[15] = dose: 400.0 mg/kg/injection, schedule: Q01DX001 (ip), vehicle: carboxymethylcellulose (CMC)
[16] = dose: 160.0 mg/kg/injection, schedule: Q04DX002 (ip), vehicle: saline with Tween-80
[17] = dose: 100.0 mg/kg/injection, schedule: Q04DX003 (ip), vehicle: saline with Tween-80
[18] = dose: 200.0 mg/kg/injection, schedule: Q04DX003 (ip), vehicle: saline with Tween-80
[19] = dose: 400.0 mg/kg/injection, schedule: Q04DX003 (ip), vehicle: saline with Tween-80

CC(=O)Nc1ccc2ccccc2c1-c1c(N)ccc2ccccc12
T/C (dose: 100.0 mg/kg/injection, schedule: Q01DX009 (ip), vehicle: gum acacia): 91 % of control | T/C (dose: 100.0 mg/kg/injection, schedule: Q04DX003 (ip), vehicle: gum acacia): 97 % of control | T/C (dose: 200.0 mg/kg/injection, schedule: Q01DX009 (ip), vehicle: gum acacia): 96 % of control | T/C (dose: 200.0 mg/kg/injection, schedule: Q04DX003 (ip), vehicle: gum acacia): 92 % of control | T/C (dose: 400.0 mg/kg/injection, schedule: Q01DX009 (ip), vehicle: gum acacia): 99 % of control | T/C (dose: 400.0 mg/kg/injection, schedule: Q04DX003 (ip), vehicle: gum acacia): 101 % of control

CCN(CC)CC
T/C [1]: 98 % of control | T/C [2]: 109 % of control | T/C [3]: 103 % of control

CC(C)C(NC(=O)OCc1ccccc1)C(=O)O (centres undefined)
T/C (dose: 9.37 mg/kg/injection, schedule: Q01DX009 (ip), vehicle: saline): 98 % of control | T/C (dose: 18.75 mg/kg/injection, schedule: Q01DX009 (ip), vehicle: saline): 93 % of control | T/C (dose: 37.5 mg/kg/injection, schedule: Q01DX009 (ip), vehicle: saline): 100 % of control | T/C (dose: 37.5 mg/kg/injection, schedule: Q04DX003 (ip), vehicle: saline): 103 % of control | T/C (dose: 75.0 mg/kg/injection, schedule: Q01DX001 (ip), vehicle: saline): 96 % of control | T/C (dose: 75.0 mg/kg/injection, schedule: Q04DX003 (ip), vehicle: saline): 101 % of control | T/C (dose: 150.0 mg/kg/injection, schedule: Q01DX001 (ip), vehicle: saline): 102 % of control

O=NN(CCF)C(=O)NC12CC3CC(CC(C3)C1)C2
T/C (dose: 40.0 mg/kg/injection, schedule: Q01DX001 (ip), vehicle: carboxymethylcellulose (CMC)): 124 % of control | T/C (dose: 60.0 mg/kg/injection, schedule: Q01DX001 (ip), vehicle: carboxymethylcellulose (CMC)): 190 % of control | T/C (dose: 93.0 mg/kg/injection, schedule: Q01DX001 (ip), vehicle: carboxymethylcellulose (CMC)): 192 % of control | T/C (dose: 187.0 mg/kg/injection, schedule: Q01DX001 (ip), vehicle: carboxymethylcellulose (CMC)): 259 % of control

Clc1cccc(/C=N/Nc2nnc(N/N=C/c3cccc(Cl)c3)c3ccccc23)c1
T/C [4]: 100 % of control | T/C [5]: 103 % of control | T/C [6]: 100 % of control | T/C [7]: 100 % of control

CCC[N+](C)(C)CCCOC(=O)C1C2CC3OC(=O)C1C3C2 (centres undefined)
T/C [8]: 106 % of control | T/C [9]: 100 % of control | T/C [10]: 100 % of control | T/C [11]: 97 % of control | T/C [12]: 91 % of control

Cc1nn2cnnc2s1
T/C [4]: 98 % of control | T/C [5]: 101 % of control | T/C [6]: 98 % of control | T/C [7]: 101 % of control

CCC/C=C(\C)C#CC1=CCCCC1
T/C (dose: 50.0 mg/kg/injection, schedule: Q01DX001 (ip), vehicle: carboxymethylcellulose (CMC)): 97 % of control | T/C [13]: 100 % of control | T/C [14]: 94 % of control | T/C [15]: 97 % of control

CCCCCCCCCCCCC(C)(OO)C(=O)OC (centres undefined)
T/C (dose: 15.0 mg/kg/injection, schedule: Q04DX002 (ip), vehicle: saline with Tween-80): 100 % of control | T/C (dose: 30.0 mg/kg/injection, schedule: Q04DX002 (ip), vehicle: saline with Tween-80): 91 % of control | T/C [16]: 95 % of control

CCCCN(C(C)(C)C(SSSC(c1ccc(Cl)cc1)C(C)(C)N(CCCC)S(C)(=O)=O)c1ccc(Cl)cc1)S(C)(=O)=O (centres undefined)
T/C (dose: 100.0 mg/kg/injection, schedule: Q01DX009 (ip), vehicle: saline with Tween-80): 96 % of control | T/C (dose: 200.0 mg/kg/injection, schedule: Q01DX009 (ip), vehicle: saline with Tween-80): 86 % of control

Cc1c(C(C)(C)C)cc(CC(C)C)c(O)c1-c1c(C)c(CC(C)C)cc(C(C)(C)C)c1O
T/C [1]: 98 % of control | T/C [2]: 91 % of control | T/C [3]: 94 % of control

Clc1cc2nc3[nH]c4ccccc4c3nc2cc1Cl
T/C [5]: 97 % of control

CCCCCCCCCCCCN (tested in a mixture with another compound)
T/C (dose: 87.5 mg/kg/injection, schedule: Q01DX001 (ip), vehicle: Klucel (hydroxypropylcellulose) (HPC)): 93 % of control

O=[N+]([O-])c1ccc(S(=O)Cc2ccccc2)c2c1no[n+]2[O-] (centres undefined)
T/C (dose: 25.0 mg/kg/injection, schedule: Q04DX003 (ip), vehicle: saline with Tween-80): 100 % of control

CC1CCC(NC2=NCCO2)C1 (centres undefined)
T/C [17]: 96 % of control | T/C [18]: 93 % of control | T/C [19]: 93 % of control

CCC[n+]1nsc2ccccc21
T/C [5]: 101 % of control

CC(=O)N1CCC(CC2CCCCC2)CC1
T/C [8]: 97 % of control | T/C [9]: 100 % of control | T/C [10]: 100 % of control

COC(=O)CSC/C(=N\Nc1ccccc1)c1ccccc1
T/C [10]: 106 % of control | T/C [5]: 104 % of control | T/C [11]: 94 % of control | T/C [6]: 98 % of control | T/C [12]: 97 % of control | T/C [7]: 93 % of control | T/C (dose: 400.0 mg/kg/injection, schedule: Q04DX003 (ip), vehicle: saline): 89 % of control

CCCCC(CC)CN(CCOc1nc(OCCN(CC(CC)CCCC)CC(CC)CCCC)nc(OCCN(CC(CC)CCCC)CC(CC)CCCC)n1)CC(CC)CCCC (centres undefined)
T/C (dose: 25.6 mg/kg/injection, schedule: Q04DX002 (ip), vehicle: saline with Tween-80): 102 % of control | T/C (dose: 64.0 mg/kg/injection, schedule: Q04DX002 (ip), vehicle: saline with Tween-80): 94 % of control | T/C [16]: 97 % of control | T/C (dose: 400.0 mg/kg/injection, schedule: Q04DX002 (ip), vehicle: saline with Tween-80): 94 % of control

Cc1nc(Cl)cc(=O)[nH]1
T/C (dose: 100.0 mg/kg/injection, schedule: Q01DX009 (ip), vehicle: Klucel (hydroxypropylcellulose) (HPC)): 90 % of control | T/C (dose: 100.0 mg/kg/injection, schedule: Q04DX003 (ip), vehicle: Klucel (hydroxypropylcellulose) (HPC)): 101 % of control | T/C (dose: 200.0 mg/kg/injection, schedule: Q01DX009 (ip), vehicle: Klucel (hydroxypropylcellulose) (HPC)): 97 % of control | T/C (dose: 200.0 mg/kg/injection, schedule: Q04DX003 (ip), vehicle: Klucel (hydroxypropylcellulose) (HPC)): 90 % of control | T/C (dose: 400.0 mg/kg/injection, schedule: Q01DX009 (ip), vehicle: Klucel (hydroxypropylcellulose) (HPC)): 90 % of control | T/C (dose: 400.0 mg/kg/injection, schedule: Q04DX003 (ip), vehicle: Klucel (hydroxypropylcellulose) (HPC)): 91 % of control

CCCCCCCCCC(=O)N1CCCCC1CC (centres undefined)
T/C [13]: 103 % of control | T/C (dose: 100.0 mg/kg/injection, schedule: Q01DX009 (ip), vehicle: carboxymethylcellulose (CMC)): 94 % of control and 95 % of control | T/C (dose: 100.0 mg/kg/injection, schedule: Q04DX002 (ip), vehicle: carboxymethylcellulose (CMC)): 100 % of control and 92 % of control | T/C (dose: 100.0 mg/kg/injection, schedule: Q04DX003 (ip), vehicle: carboxymethylcellulose (CMC)): 92 % of control | T/C [14]: 101 % of control | T/C (dose: 200.0 mg/kg/injection, schedule: Q01DX009 (ip), vehicle: carboxymethylcellulose (CMC)): 95 % of control and 102 % of control | T/C (dose: 200.0 mg/kg/injection, schedule: Q04DX002 (ip), vehicle: carboxymethylcellulose (CMC)): 103 % of control and 92 % of control | T/C (dose: 200.0 mg/kg/injection, schedule: Q04DX003 (ip), vehicle: carboxymethylcellulose (CMC)): 95 % of control | T/C [15]: 95 % of control | T/C (dose: 400.0 mg/kg/injection, schedule: Q04DX002 (ip), vehicle: carboxymethylcellulose (CMC)): 95 % of control and 96 % of control | T/C (dose: 400.0 mg/kg/injection, schedule: Q04DX003 (ip), vehicle: carboxymethylcellulose (CMC)): 97 % of control

Cc1cc2c(cc1O)C(C)(C)CCC2(C)C
T/C [17]: 92 % of control | T/C [18]: 100 % of control | T/C [19]: 97 % of control

CC(=O)OC(C)(C)/C=C/C(=O)C(C)(O)C1C(O)CC2(C)C3CC=C4C(C=C(OC5OC(CO)C(O)C(O)C5O)C(=O)C4(C)C)C3(C)C(=O)CC12C (centres undefined)
T/C (dose: 25.0 mg/kg/injection, schedule: Q04DX002 (ip), vehicle: saline with Tween-80): 98 % of control | T/C (dose: 50.0 mg/kg/injection, schedule: Q04DX002 (ip), vehicle: saline with Tween-80): 98 % of control | T/C (dose: 100.0 mg/kg/injection, schedule: Q04DX002 (ip), vehicle: saline with Tween-80): 96 % of control and 105 % of control
